Measurements reported in PubChem BioAssay (NCI).
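These data come from cells grown in 96-well plates and exposed to compound for 48 hours at five concentrations. TGI denotes the concentration required for complete inhibition of growth.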

Assays:
Experiment in all cases: inhibition of tumour cell growth, NCI panel, 48 h
786-0 renal = test system: 786-0 renal
A498 renal = test system: A498 renal
A549 NSCLC = test system: A549 NSCLC
ACHN renal = test system: ACHN renal
BT-549 breast = test system: BT-549 breast
CAKI-1 renal = test system: CAKI-1 renal
CCRF-CEM leukemia = test system: CCRF-CEM leukemia
COLO 205 colon = test system: COLO 205 colon
DLD-1 colon = test system: DLD-1 colon
DMS 114 small cell lung = test system: DMS 114 small cell lung
DMS 273 small cell lung = test system: DMS 273 small cell lung
DU-145 prostate = test system: DU-145 prostate
EKVX NSCLC = test system: EKVX NSCLC
HCC-2998 colon = test system: HCC-2998 colon
HCT-116 colon = test system: HCT-116 colon
HCT-15 colon = test system: HCT-15 colon
HL-60(TB) leukemia = test system: HL-60(TB) leukemia
HOP-62 NSCLC = test system: HOP-62 NSCLC
HOP-92 NSCLC = test system: HOP-92 NSCLC
HS 578T breast = test system: HS 578T breast
HT29 colon = test system: HT29 colon
IGROV1 ovarian = test system: IGROV1 ovarian
K-562 leukemia = test system: K-562 leukemia
KM12 colon = test system: KM12 colon
KM20L2 colon = test system: KM20L2 colon
LOX IMVI melanoma = test system: LOX IMVI melanoma
LXFL 529 NSCLC = test system: LXFL 529 NSCLC
M14 melanoma = test system: M14 melanoma
M19-MEL melanoma = test system: M19-MEL melanoma
MALME-3M melanoma = test system: MALME-3M melanoma
MCF7 breast = test system: MCF7 breast
MDA-MB-231 breast = test system: MDA-MB-231 breast
MDA-MB-435 = test system: MDA-MB-435
MDA-N = test system: MDA-N
MOLT-4 leukemia = test system: MOLT-4 leukemia
NCI-H226 lung = test system: NCI-H226 lung
NCI-H23 lung = test system: NCI-H23 lung
NCI-H460 lung = test system: NCI-H460 lung
NCI-H522 lung = test system: NCI-H522 lung
NCI/ADR-RES ovarian = test system: NCI/ADR-RES ovarian
OVCAR-3 ovarian = test system: OVCAR-3 ovarian
OVCAR-4 ovarian = test system: OVCAR-4 ovarian
OVCAR-5 ovarian = test system: OVCAR-5 ovarian
OVCAR-8 ovarian = test system: OVCAR-8 ovarian
PC-3 prostate = test system: PC-3 prostate
RPMI-8226 leukemia = test system: RPMI-8226 leukemia
RXF 393 renal = test system: RXF 393 renal
RXF-631 renal = test system: RXF-631 renal
SF-268 CNS = test system: SF-268 CNS
SF-295 CNS = test system: SF-295 CNS
SF-539 CNS = test system: SF-539 CNS
SK-MEL-2 melanoma = test system: SK-MEL-2 melanoma
SK-MEL-28 melanoma = test system: SK-MEL-28 melanoma
SK-MEL-5 melanoma = test system: SK-MEL-5 melanoma
SK-OV-3 ovarian = test system: SK-OV-3 ovarian
SN12C renal = test system: SN12C renal
SNB-19 CNS = test system: SNB-19 CNS
SNB-75 CNS = test system: SNB-75 CNS
SNB-78 CNS = test system: SNB-78 CNS
SR leukemia = test system: SR leukemia
SW-620 colon = test system: SW-620 colon
T-47D breast = test system: T-47D breast
TK-10 renal = test system: TK-10 renal
U251 CNS = test system: U251 CNS
UACC-257 melanoma = test system: UACC-257 melanoma
UACC-62 melanoma = test system: UACC-62 melanoma
UO-31 renal = test system: UO-31 renal
XF 498 CNS = test system: XF 498 CNS
HOP-18 NSCLC = test system: HOP-18 NSCLC

For `CC(=O)NNc1nc(C)c(C(=O)NNC(=O)C(=O)Nc2nc3ccc([N+](=O)[O-])cc3s2)s1`, the TGI (786-0 renal) was greater than 100 µM, the TGI (A498 renal) was greater than 70.8 µM and the TGI (A549 NSCLC) was greater than 100 µM. For the same molecule, the TGI (ACHN renal) was greater than 100 µM, the TGI (BT-549 breast) was greater than 100 µM and the TGI (CAKI-1 renal) was greater than 92.6 µM. It also gave a TGI (CCRF-CEM leukemia) of 56.5 µM, a TGI (COLO 205 colon) greater than 100 µM and a TGI (DLD-1 colon) greater than 100 µM. For the same molecule, the TGI (DMS 114 small cell lung) was 82.5 µM, the TGI (DMS 273 small cell lung) was greater than 100 µM and the TGI (DU-145 prostate) was greater than 100 µM. It also gave a TGI (EKVX NSCLC) greater than 100 µM, a TGI (HCC-2998 colon) greater than 100 µM and a TGI (HCT-116 colon) greater than 100 µM. The TGI (HCT-15 colon) was greater than 100 µM, the TGI (HL-60(TB) leukemia) was 79.9 µM and the TGI (HOP-62 NSCLC) was greater than 100 µM. For the same molecule, the TGI (HOP-92 NSCLC) was greater than 100 µM, the TGI (HS 578T breast) was greater than 100 µM and the TGI (HT29 colon) was greater than 100 µM. The TGI (IGROV1 ovarian) was greater than 83.7 µM, the TGI (K-562 leukemia) was greater than 70.6 µM and the TGI (KM12 colon) was greater than 100 µM. It also gave a TGI (KM20L2 colon) greater than 100 µM, a TGI (LOX IMVI melanoma) greater than 100 µM and a TGI (LXFL 529 NSCLC) greater than 100 µM. It also gave a TGI (M14 melanoma) greater than 100 µM, a TGI (M19-MEL melanoma) greater than 100 µM and a TGI (MALME-3M melanoma) greater than 100 µM. It also gave a TGI (MCF7 breast) greater than 100 µM, a TGI (MDA-MB-231 breast) greater than 100 µM and a TGI (MDA-MB-435) greater than 100 µM. The TGI (MDA-N) was greater than 100 µM, the TGI (MOLT-4 leukemia) was greater than 100 µM and the TGI (NCI-H226 lung) was greater than 100 µM. The TGI (NCI-H23 lung) was greater than 100 µM, the TGI (NCI-H460 lung) was greater than 100 µM and the TGI (NCI-H522 lung) was 61.4 µM. It also gave a TGI (NCI/ADR-RES ovarian) greater than 100 µM, a TGI (OVCAR-3 ovarian) of 76.4 µM and a TGI (OVCAR-4 ovarian) greater than 100 µM. It also gave a TGI (OVCAR-5 ovarian) greater than 100 µM, a TGI (OVCAR-8 ovarian) greater than 100 µM and a TGI (PC-3 prostate) greater than 100 µM. For the same molecule, the TGI (RPMI-8226 leukemia) was greater than 80.5 µM, the TGI (RXF 393 renal) was greater than 95.6 µM and the TGI (RXF-631 renal) was greater than 100 µM. The TGI (SF-268 CNS) was greater than 100 µM, the TGI (SF-295 CNS) was greater than 100 µM and the TGI (SF-539 CNS) was greater than 100 µM. The TGI (SK-MEL-2 melanoma) was greater than 100 µM, the TGI (SK-MEL-28 melanoma) was greater than 100 µM and the TGI (SK-MEL-5 melanoma) was greater than 81.5 µM. It also gave a TGI (SK-OV-3 ovarian) greater than 100 µM, a TGI (SN12C renal) greater than 100 µM and a TGI (SNB-19 CNS) greater than 100 µM. It also gave a TGI (SNB-75 CNS) greater than 100 µM, a TGI (SNB-78 CNS) greater than 100 µM and a TGI (SR leukemia) greater than 72.2 µM. The TGI (SW-620 colon) was greater than 100 µM, the TGI (T-47D breast) was 68.3 µM and the TGI (TK-10 renal) was greater than 100 µM. For the same molecule, the TGI (U251 CNS) was greater than 100 µM, the TGI (UACC-257 melanoma) was greater than 100 µM and the TGI (UACC-62 melanoma) was greater than 100 µM. The TGI (UO-31 renal) was greater than 100 µM and the TGI (XF 498 CNS) was 75.9 µM.
In the case of `O=c1ncccn1C1C=C(CO)C(O)C1O` (configuration not stated), the TGI (786-0 renal) is reported as greater than 50 µM, the TGI (A498 renal) is reported as greater than 50 µM and the TGI (A549 NSCLC) is reported as greater than 50 µM. For the same molecule, the TGI (ACHN renal) was greater than 50 µM, the TGI (CAKI-1 renal) was greater than 50 µM and the TGI (CCRF-CEM leukemia) was greater than 50 µM. The TGI (COLO 205 colon) was greater than 50 µM, the TGI (DLD-1 colon) was greater than 50 µM and the TGI (DMS 114 small cell lung) was greater than 50 µM. It also gave a TGI (DMS 273 small cell lung) greater than 50 µM, a TGI (EKVX NSCLC) greater than 50 µM and a TGI (HCC-2998 colon) greater than 50 µM. It also gave a TGI (HCT-15 colon) greater than 50 µM, a TGI (HL-60(TB) leukemia) greater than 50 µM and a TGI (HOP-18 NSCLC) greater than 50 µM. For the same molecule, the TGI (HOP-62 NSCLC) was greater than 50 µM, the TGI (HOP-92 NSCLC) was greater than 50 µM and the TGI (HT29 colon) was greater than 50 µM. For the same molecule, the TGI (K-562 leukemia) was greater than 50 µM, the TGI (KM12 colon) was greater than 50 µM and the TGI (KM20L2 colon) was greater than 50 µM. The TGI (LOX IMVI melanoma) was greater than 50 µM, the TGI (LXFL 529 NSCLC) was greater than 50 µM and the TGI (M14 melanoma) was greater than 50 µM. For the same molecule, the TGI (MALME-3M melanoma) was greater than 50 µM, the TGI (MOLT-4 leukemia) was greater than 50 µM and the TGI (NCI-H226 lung) was greater than 50 µM. It also gave a TGI (NCI-H23 lung) greater than 50 µM, a TGI (NCI-H460 lung) greater than 50 µM and a TGI (NCI-H522 lung) greater than 50 µM. It also gave a TGI (OVCAR-3 ovarian) greater than 50 µM, a TGI (OVCAR-4 ovarian) greater than 50 µM and a TGI (OVCAR-5 ovarian) greater than 50 µM. The TGI (RPMI-8226 leukemia) was greater than 50 µM, the TGI (SF-268 CNS) was greater than 50 µM and the TGI (SF-295 CNS) was greater than 50 µM. It also gave a TGI (SF-539 CNS) greater than 50 µM, a TGI (SK-MEL-2 melanoma) greater than 50 µM and a TGI (SK-MEL-28 melanoma) greater than 50 µM. It also gave a TGI (SK-MEL-5 melanoma) greater than 50 µM, a TGI (SK-OV-3 ovarian) greater than 50 µM and a TGI (SNB-19 CNS) greater than 50 µM. For the same molecule, the TGI (SNB-78 CNS) was greater than 50 µM, the TGI (SW-620 colon) was greater than 50 µM and the TGI (TK-10 renal) was greater than 50 µM. It also gave a TGI (U251 CNS) greater than 50 µM, a TGI (UACC-257 melanoma) greater than 50 µM and a TGI (UO-31 renal) greater than 50 µM. It also gave a TGI (XF 498 CNS) greater than 50 µM.
